Reference: patent US7186521B2, “Determining the effect of a substance on sequestration, uptake, and accumulation of amyloid in brain cells” (The Regents of the University of California, priority 2000, dated 2007)
Entries after “also recorded” stand apart in the source; their conditions may differ. Ends that are not written are not given here.

Tests used:
[1] = system: cultured hippocampal slices; assay: Aβ1–42 uptake/internalization in cultured hippocampal slices (Aβ1–42 immunocytochemistry, NIH Image quantification); type: cell-based, Sprague-Dawley rat; settings: for number of Aβ-ir particles within the sample field / size (average area) of individual Aβ-ir particles / total area encompassed by Aβ-ir elements: CA1b stratum pyramidale; for number of Aβ-ir particles within the sample field: Aβ1–42 plus antagonist vs Aβ alone (FIG. 4G), significant for GRGDSP only; for size (average area) of individual Aβ-ir particles / total area encompassed by Aβ-ir elements: Aβ1–42 plus antagonist; for size (average area) of individual Aβ-ir particles: mean±sem relative to Aβ alone (FIG. 4E); for total area encompassed by Aβ-ir elements: mean±sem relative to Aβ alone (FIG. 4F); for effect on sequestration/uptake/internalization of Aβ1–42: co-incubated with Aβ1–42, 6 days, GRGDSP and GRADSP 2 mM, echistatin 2 μM; for slices with intraneuronal Aβ1–42 immunostaining: Aβ1–42 plus antagonist (GRGDSP 2 mM; echistatin 2 μM)
Description: (§1) Organotypic hippocampal cultures were prepared using the technique of Stoppini et al. (1991). Briefly, hippocampi were harvested from brains of 9–12 days old Sprague-Dawley rat pups under sterile conditions. Sections were cut (400 μm thick) perpendicular to the long axis of hippocampus using a Mclllwain tissue chopper and were collected into a cutting medium consisting of MEM with Earle's salts (Gibco, Rockville Md.), 25 mM HEPES, 10 mM Tris base, 10 mM glucose, and 3 mM MgCl2 (pH 7.2). Slices were positioned onto 30 mm cell culture inserts (Millicell-CM, Millipore, Bedford, […].) that were placed in 6 well culture trays with 1 ml of growth medium per well [growth medium: MEM with Hank's salts (Gibco), 20% horse serum, 3 mM glutamine, 25 mM HEPES, 5 mM NaHCO3, 25 mM glucose, 0.5 mM ascorbate, 2 mM CaCl2, 2.5 mM MgCl2, 0.5 mg/1 insulin, and penicillin, pH 7.2]. The cultures were incubated at 35° C. with a 5% CO2-enriched atmosphere and the media was changed every other day until use 10–12 days later.
(§2) Cultured hippocampal slices were exposed to media containing the human Aβ1–42 sequence in the presence or absence of the integrin antagonist peptide, Gly-Arg-Gly-Asp-Ser-Pro, or GRGDSP (SEQ. ID. No.3) (2 mM dissolved in media) (Ruoslahti, E., Ann Rev Cell Dev Biol 12:697–715 (1996)). In some cases, slices were co-treated with the specific NMDA receptor antagonist 2-amino-5-phosphonovalerate (AP5) (Sigma) at 50 μM. Control slices in neighboring wells received media-vehicle only. Aβ1–42 peptide solution was freshly prepared before the start of the experiment using 0.1N NaOH, pH adjusted with 0.1N HCl to 7.4, and then diluted with serum-free culture medium. Aβ was applied at 30 μM for 8–10 hr after which it was diluted to 15 μM by the addition of fresh culture media containing heated treated horse serum. Treatment was repeated every other day for a total 6 days. Disintegrins are small (4–10 kDa) RGD-containing, cysteine-rich peptides from snake venom that bind integrins with high affinity (Kd˜1 nM–0.1 μM) and are potent antagonists of integrin functions (Huang, T. F., Cell Mol Life Sci 54:527–540 (1998)for review). In some experiments the disintegrin echistatin (2 μM dissolved in media) was applied instead of GRGDSP (SEQ. ID. No.3).
(§3) The following treatment, slices were thoroughly washed with 0.1M sodium phosphate buffered saline (PBS), fixed for 12–16 hr in cold 0.1M phosphate buffer (PB; pH 7.2) containing 4% paraformaldehyde, cryoprotected in 20% sucrose/PB for 1–2 hr and then carefully removed from the insert membranes. Serial sections were cut at 25 μm thick, parallel to the broad face of the explant, using a freezing microtome. Immunocytochemistry was performed using the standard avidin biotin horseradish peroxidase complex (ABC) method using reagents and instructions of the VECTASTAIN® Elite ABC kit from Vector Laboratories (Burlingame, Calif.) with diaminobenzidine tetrahydrochloride (0.05% in 50 mM Tris-HCl buffer, pH 7.4) as chromagen and PBS for rinses and as diluent for antibody incubations. Briefly, free-floating sections were preincubated with 3% normal goat serum (for anti-Aβ1–42 and anti-cathepsin D antibodies) or 10% normal horse serum (for ED-1) in PBS for 1 hr at room temperature. […] Sections were washed in PBS, incubated in biotinylated anti-rabbit or anti-mouse IgG (both at 1:200) for 2–3 hr, washed in PBS, incubated in the avidin-biotin complex solution for 45 min and then processed through the diaminobenzidine reaction. After final rinses in PBS, sections were mounted on SuperFrost Plus slides (Fisher Scientific, Pittsburgh), air-dried, dehydrated in a series of graded ethanols, and coverslipped from Clearing Solvent (Stephens Scientific, Kalamazoo, Mich.) with Permount (Fisher).
Images centered on CA1b stratum pyramidale were obtained at 40× objective magnification using a Sony DKC-5000 digital camera attached to a Zeiss Universal microscope. […]

[2] = system: cathepsin D; assay: Cathepsin D immunoreactivity in cultured hippocampal slices; type: cell-based, Sprague-Dawley rat
Description: as §1, §2
The following treatment, slices were thoroughly washed with 0.1M sodium phosphate buffered saline (PBS), fixed for 12–16 hr in cold 0.1M phosphate buffer (PB; pH 7.2) containing 4% paraformaldehyde, cryoprotected in 20% sucrose/PB for 1–2 hr and then carefully removed from the insert membranes. Serial sections were cut at 25 μm thick, parallel to the broad face of the explant, using a freezing microtome. […]

[3] = system: reactive microglia; assay: Microglial activation (ED-1 immunoreactivity) in cultured hippocampal slices; type: cell-based, Sprague-Dawley rat; settings: for effect on ED-1-ir microglia: 50 μM AP5 with Aβ1–42 and 2 mM GRGDSP, 6 days; for number of ED-1 positive cells: treatment by itself
Description: as §1, §2
as §3, with “After final rinses in PBS, sections were mounted on SuperFrost Plus slides (Fisher Scientific, Pittsburgh), air-dried, dehydrated in a series of graded ethanols, and coverslipped from Clearing Solvent (Stephens Scientific, Kalamazoo, Mich.) with Permount (Fisher).” left out

[4] = system: integrin binding to fibronectin and vitronectin; settings: literature; used as inactive control peptide; cited from earlier work
[5] = system: CHO cells; settings: CHO cells in culture; Matter et al. 1998; cited from earlier work
[6] = system: LTP stabilization in field CA1 of hippocampus; settings: injection of 5 μM echistatin; Chun et al., 2001; cited from earlier work
[7] = target: RGD-binding integrins; assay: cell-based or functional assay
[8] = 50 μM AP5 with Aβ1–42 and 2 mM GRGDSP, 6 days
[9] = treatment alone, 6 days, count of slices with Aβ-ir out of number of slices tested (Aβ 45, RGD 14)
[10] = treatment alone, 6 days (GRGDSP 2 mM)
[11] = Aβ + antagonist co-incubation, 6 days, count out of slices tested (61, 16, 21, 16), RGD and RAD 2 mM, Ech 2 μM

NC(CCCP(=O)(O)O)C(=O)O (stereo not shown) [AP5, 2-amino-5-phosphonovalerate]
effect on GRGDSP-enhanced Aβ1–42 uptake [1, 8]: completely blocked Aβ1–42 uptake; also recorded: completely eliminated Aβ uptake
effect on cathepsin D-ir [2, 8]: almost totally suppressed; also recorded: suppressed cathepsin D-ir
effect on ED-1-ir microglia [3]: ED-1-ir (C′) to vehicle control levels
effect on ED-1-ir microglia ([3]; listed as AP-5): greatly reduced

Aβ1–42: human amyloid beta peptide, 42-residue form, applied exogenously to slices
slices with intraneuronal Aβ1–42 immunoreactivity (Aβ-ir) ([1]; Aβ1–42 alone, 6 days): 42%
Aβ positive cases [1, 9]: 19
cathepsin D-ir [2, 10]: did not cause substantial increases in cathepsin D-ir
number of ED-1 positive cells [3]: did not cause a noticeable increase in the number of ED-1 positive cells

GRADSP
Aβ positive cases [1, 11]: 9
number of Aβ-ir particles within the sample field [1]: did not cause significant changes
size (average area) of individual Aβ-ir particles [1]: did not cause significant changes
total area encompassed by Aβ-ir elements [1]: did not cause significant changes
effect on sequestration/uptake/internalization of Aβ1–42 [1]: did not measurably affect sequestration of Aβ1–42; also recorded: modest
antagonism of integrin binding to fibronectin and vitronectin [4]: very weak antagonist

Gly-Arg-Gly-Asp-Ser-Pro [GRGDSP]
slices with intraneuronal Aβ1–42 immunostaining ([1]; 6 days): More than 88%
number of Aβ-ir particles within the sample field [1]: increased the numbers of Aβ-ir particles
size (average area) of individual Aβ-ir particles [1]: +101±13%
total area encompassed by Aβ-ir elements [1]: 324±16%
effect on sequestration/uptake/internalization of Aβ1–42 [1]: markedly increase sequestration of the exogenous peptide; also recorded: markedly enhances uptake in cultured hippocampal slices; also recorded: enhanced; also recorded: increased the uptake of Aβ1–42 peptide
induction of Aβ-ir ([1]; peptide by itself, without Aβ1–42): did not induce Aβ-ir
Aβ positive cases [1, 9]: 0
cathepsin D-ir ([2]; Aβ1–42 plus 2 mM GRGDSP, 6 days): generated intense intraneuronal cathepsin D-ir; also recorded: elevated
cathepsin D-ir [2, 10]: did not increase cathepsin D-ir
microglial response (ED-1-ir) ([3]; Aβ1–42 and GRGDSP applied together): produced a pronounced microglial response
number of ED-1 positive cells [3]: did not cause a noticeable increase in the number of ED-1 positive cells
effect on binding and uptake of Aβ [5]: block the binding and uptake of Aβ in CHO cells

echistatin (QCESGPCCRNCKFLKEGTICKRARGDDMDDYCNGKTCDCPRNPHKGPAT)
slices with intraneuronal Aβ1–42 immunostaining ([1]; 6 days): 86%
Aβ positive cases [1, 11]: 18
number of Aβ-ir particles within the sample field [1]: increased the numbers of Aβ-ir particles
size (average area) of individual Aβ-ir particles [1]: +95±13%
total area encompassed by Aβ-ir elements [1]: 233±24%
effect on sequestration/uptake/internalization of Aβ1–42 [1]: significantly enhanced Aβ internalization; also recorded: increased the uptake of Aβ1–42 peptide
effect on LTP stabilization [6]: selectively disrupts LTP stabilization

GRGDSP [integrin antagonist peptide Gly-Arg-Gly-Asp-Ser-Pro (GRGDSP)]
Aβ positive cases (slices with intraneuronal Aβ1-42 immunoreactivity), Aβ + RGD, of 61 slices tested (slices (of 61 tested)) [7]: 54
increase in size (mean area) of Aβ-ir elements in CA1 stratum pyramidale, relative to Aβ alone [7]: 101%
total area encompassed by Aβ-immunoreactive elements, relative to Aβ alone [7]: 324%

GRADSP [inactive control peptide Gly-Arg-Ala-Asp-Ser-Pro (GRADSP)]
Aβ positive cases (slices with intraneuronal Aβ1-42 immunoreactivity), Aβ + RAD, of 16 slices tested (slices (of 16 tested)) [7]: 9
